Results reported in the NIST ThermoML archive (doi:10.1021/je9003806).
± gives the expanded uncertainty stated by the source.

Assay: excess molar enthalpy (molar enthalpy of mixing); xn = mol fraction of the nth substance listed
Conditions: 101.3 kPa, Liquid, Flow calorimetry

CCOC(=O)CC(=O)OCC [diethyl 1,3-propanedioate] + CCCO
excess molar enthalpy [kcal/mol]
Conditions	288.2 K	298.2 K	313.2 K	328.2 K
x1 = 0.0499	0.116 ± 0.00311	0.128 ± 0.00335	0.138 ± 0.00382	0.143 ± 0.00382
x1 = 0.1004	0.207 ± 0.00478	0.225 ± 0.00502	0.25 ± 0.00574	0.266 ± 0.00598
x1 = 0.1588	–	0.314 ± 0.00693	0.345 ± 0.00765	0.371 ± 0.00813
x1 = 0.209	–	0.376 ± 0.00813	0.415 ± 0.00908	0.447 ± 0.00956
x1 = 0.2513	0.381 ± 0.00837	0.418 ± 0.00908	0.458 ± 0.0098	0.491 ± 0.0105
x1 = 0.3	0.415 ± 0.00884	0.456 ± 0.0098	0.5 ± 0.0108	0.536 ± 0.0115
x1 = 0.3491	0.443 ± 0.00956	0.485 ± 0.0103	0.533 ± 0.0115	0.571 ± 0.0122
x1 = 0.3982	0.462 ± 0.0098	0.504 ± 0.0108	0.554 ± 0.012	0.593 ± 0.0127
x1 = 0.451	0.472 ± 0.01	0.515 ± 0.011	0.565 ± 0.012	0.603 ± 0.0129
x1 = 0.499	0.478 ± 0.0103	0.52 ± 0.011	0.567 ± 0.0122	0.602 ± 0.0129
x1 = 0.5503	0.474 ± 0.01	0.512 ± 0.011	0.559 ± 0.012	0.592 ± 0.0127
x1 = 0.6002	0.462 ± 0.0098	0.497 ± 0.0105	0.539 ± 0.0115	0.567 ± 0.0122
x1 = 0.6479	0.445 ± 0.00956	0.476 ± 0.0103	0.511 ± 0.011	0.539 ± 0.0115
x1 = 0.6986	0.419 ± 0.00908	0.447 ± 0.00956	0.47 ± 0.01	0.493 ± 0.0105
x1 = 0.7525	0.376 ± 0.00813	0.399 ± 0.0086	0.418 ± 0.00908	0.434 ± 0.00932
x1 = 0.797	0.334 ± 0.00717	0.352 ± 0.00765	0.361 ± 0.00789	0.375 ± 0.00813
x1 = 0.8506	0.269 ± 0.00598	0.28 ± 0.00621	0.284 ± 0.00621	0.294 ± 0.00645
x1 = 0.9003	0.196 ± 0.00454	0.197 ± 0.00454	0.205 ± 0.00478	0.204 ± 0.00478
x1 = 0.9527	0.105 ± 0.00287	0.104 ± 0.00287	0.103 ± 0.00287	0.0999 ± 0.00287
